Source: patent US9580487B2, “Method of treating stomach or bowel-related disorders by administering glucagon-like-peptide-2 (GLP-2) analogues” (Zealand Pharma A/S, priority 2005, dated 2017)
Entries after “also recorded” stand apart in the source; their conditions may differ. No end group written: not given here.

Columns and labels:
[1] = test system: male C57BL mice; test: Screening for intestinal growth effects (small intestine and colon mass relative to body weight, small intestine-colon sensitivity index); type: in vivo; conditions: for Small intestine mass relative to [Gly2]GLP-2 / Preferential growth of small intestine versus colon (small intestine-colon sensitivity): 30 nmol/kg s.c. twice daily, ten days; for Small intestine mass relative to [Gly2]GLP-2: equimolar [Gly2]GLP-2; for Preferential growth of small intestine versus colon (small intestine-colon sensitivity): relative to [Gly2]GLP-2; for colon mass relative to body weight, % [Gly2]GLP-2 / small intestine-colon sensitivity index, (SI/Colon)X/(SI/Colon)[Gly2]GLP-2 %: male C57BL mice, 30 nmol/kg s.c. twice daily for ten days; for small intestine-colon sensitivity index, (SI/Colon)X/(SI/Colon)[Gly2]GLP-2 %: third value column
Experimental: The ability of the present compounds to stimulate intestinal growth was determined in male C57BL mice. Individual groups (n=6) of mice were given 30 nmol/kg of each compound, s.c, twice daily for ten consecutive days. For comparison purposes other groups of animals were given either an equimolar dose of [Gly2]GLP-2 (SEQ ID NO:54) or vehicle (phosphate buffered saline, pH 7.4) in the same dosing regimen. Twenty-four hours after the last dose of compound had been given the mice were sacrificed and the small intestine (from the pylorus to the cecum) and the colon (intestine distal to cecum) was emptied and weighed. To correct for slight difference in body weight (BW), the organ mass of the small intestine (SI) and colon were expressed relative to BW. The non-selective reference compound [Gly2]GLP-2 (SEQ ID NO:54) has been reported to stimulate gastrointestinal growth in both esophagus, stomach, small intestine and colon and to evaluate differences in growth pattern induced by compounds, the small intestine-colon sensitivity index of compound X was calculated as:
(SI/Colon)X/(SI/Colon)[Gly2]GLP-2%
Compounds with a small intestine-colon sensitivity greater than or equal to 1.05 were considered relatively selective for the small intestine (Table 15).
Compounds with a small intestine-colon sensitivity smaller than or equal to 0.95 were considered relatively selective for the colon (Table 15).

[2] = test system: male C57BL mice; test: Dose-response effect on intestinal growth (SI mass, SI-Colon Sensitivity Index, colon and stomach mass); type: in vivo; conditions: 5-405 nmol/kg s.c. b.i.d. for three days
Experimental: Values are means±SEM. *: P<0.05 relative to the equimolar dose of [Gly2]GLP-2 (SEQ ID NO:54).
FIG. 2 is a set of graphs showing full dose-response data of four small intestine selective compounds (compound nos. 1846 (SEQ ID NO:34), 1855 (SEQ ID NO:43), 1848 (SEQ ID NO:36), 1858 (SEQ ID NO:46)) on the Small Intestine (SI)-to-Colon Sensitivity Index mice relative to the non-selective reference compound [Gly2]GLP-2 (SEQ ID NO:54). Compounds were administered by subcutaneous injection b.i.d. for three days in C57BL mice at the following doses: 0 (vehicle), 5, 15, 45, 135, 405 nmol/kg (n=6/dose group). Responses at each dose level were compared with responses obtained at the same dose level in pair-treated mice treated with the non-selective reference compound [Gly2]GLP-2 (SEQ ID NO:54). The SI-Colon Sensitivity Index was calculated as SI-mass relative to colon mass and the Sensitivity Index at each dose level was normalized to the response observed with the non-selective reference compound [Gly2]GLP-2 (SEQ ID NO:54). […] Values are means±SEM. *: P<0.05 relative to the equimolar dose of [Gly2]GLP-2.
FIG. 4 is a set of graphs showing full dose-response data of three small intestine selective compounds (compound nos. 1857 (SEQ ID NO:45), 1820 (SEQ ID NO:10), and 1849 (SEQ ID NO:37)) on the Small Intestine (SI)-to-Colon Sensitivity Index mice relative to the non-selective reference compound [Gly2]GLP-2 (SEQ ID NO:54). Compounds were administered by subcutaneous injection b.i.d. for three days in C57BL mice at the following doses: 0 (vehicle), 5, 15, 45, 135, 405 nmol/kg (n=6/dose group). Responses at each dose level were compared with responses obtained at the same dose level in pair-treated mice treated with the non-selective reference compound [Gly2]GLP-2 (SEQ ID NO:54). The SI-Colon Sensitivity Index was calculated as SI-mass relative to colon mass and the Sensitivity Index at each dose level was normalized to the response observed with the non-selective reference compound [Gly2]GLP-2 (SEQ ID NO:54). […] Values are means±SEM. *: P<0.05 relative to the equimolar dose of [Gly2]GLP-2 (SEQ ID NO:54).
Compounds were administered by subcutaneous injection b.i.d. for three days in C57BL mice at the following doses: 0 (vehicle), 5, 15, 45, 135, 405 nmol/kg (n=6/dose group). […] Values are means±SEM. *: P<0.05 relative to the vehicle.
The dose-response effect of 1820 (SEQ ID NO:10), 1855 (SEQ ID NO:43), ZP1846 (SEQ ID NO:34), 1858 (SEQ ID NO:46), 1849 (SEQ ID NO:37), 1848 (SEQ ID NO:36), and 1857 (SEQ ID NO:45) on small intestinal mass was determined in male C57BL mice. Individual groups (n=6) of mice were given 5, 15, 45, 135 or 405 nmol/kg of each compound, s.c, twice daily for three consecutive days. For comparison purposes other groups of animals were given either equimolar doses of [Gly2]GLP-2 (SEQ ID NO:54) or vehicle (phosphate buffered saline, pH 7.4) in the same dosing regimen. Twenty-four hours after the last dose of compound had been given the mice were sacrificed and the small intestine (from the pylorus to the cecum emptied and weighed to determine the effect on small intestinal mass.

[3] = Chemical stability testing: incubation in HCl, NaOH, H2O2 or NH4HCO3 at 40° C., remaining purity by RP-HPLC; type: physicochemical; conditions: 40° C.; for Stability during acid hydrolysis (in words): 0.1 M HCl, 12 days; for Purity H2O2 0.5% 3 days / Purity HCl 0.1M 12 days / Purity NH4HCO3 0.1M 6 days: 2 mg/ml, relative to the purity at T=0; for Purity H2O2 0.5% 3 days / Purity HCl 0.1M 12 days: RP-HPLC; for Purity NH4HCO3 0.1M 6 days: pH 8, RP-HPLC
Experimental: The GLP-2 analogues were dissolved in purified water and subsequently diluted in solutions containing HCl, NaOH, H2O2 or NH4HCO3. The solutions were incubated at 40° C. to produce hydrolysis, deamidation and oxidation products. The samples were analyzed by RP-HPLC and the percentage of remaining intact compound was determined as a measure for the relative stability. The major degradation products were tentatively identified by LC-MS.
The GLP-2 analogues tested and the reference Gly^2-GLP-2, ZP1559 (SEQ ID NO:54), were dissolved in water and subsequently diluted into solutions containing HCl, NaOH, H2O2 or NH4HCO3. The samples were incubated at 40° C. to generate hydrolysis, deamidation and oxidation products, respectively. The compounds were analysed by RP-HPLC for purity of the original main peak and by LC-MS for confirmation of the identity by mass of the main peak and major degradation products.
The GLP-2 analogues were first dissolved in MQW to a concentration of 4 mg/ml and then further diluted in the stress solutions at a 1:1 ratio (e.g. 125 μl plus 125 μl). The final concentrations were 2 mg/ml of the GLP-2 analogues for stress conditions with 0.1 M HCl, 0.01M NaOH, 0.1 M NH4HCO3 and 0.5% H2O2, respectively.
The solutions were incubated at 40° C. in the dark and then diluted in Eluent A to a concentration of 0.5 mg/ml (addition of 750 μl) prior to analyses by RP-HPLC and by LC-MS.
The RP-HPLC analyses were performed on an Agilent Series 1100 HPLC system under control of the ChemStation (Revision A.08.03 [847]) software from Agilent Technologies, Inc. The raw data and the results of the peak integration were deposited on the ChemStore C/S server by the use of Agilent Technologies Revision B01.03 software.
The results are shown in Table 9 as the compound purity measured by RP-HPLC after incubation under stress conditions. This purity is a measure for the remaining intact compound after incubation in stress solutions, relative to the purity measured a T=0.

Substance | Small intestine mass relative to [Gly2]GLP-2 [1] | Preferential growth of small intestine versus colon (small intestine-colon sensitivity) [1] | colon mass relative to body weight, % [Gly2]GLP-2 [1] | small intestine-colon sensitivity index, (SI/Colon)X/(SI/Colon)[Gly2]GLP-2 % [1] | Small intestinal mass (SI-BW ratio), maximal response relative to [Gly2]GLP-2 [2] | Stability during acid hydrolysis (in words) [3] | Purity H2O2 0.5% 3 days [3] [%] | Purity HCl 0.1M 12 days [3] [%] | Purity NH4HCO3 0.1M 6 days [3] [%] | SI-Colon Sensitivity Index (SI mass relative to colon mass) relative to [Gly2]GLP-2 [2]
[Gly2, Glu3, Ser8, Leu10, Ala11,16,24,28]hGLP-2(1-33)-NH2 (HGEGSFSSELATILDALAARDFIAWLIATKITD-NH2) [Compound 1858] | increased small intestine mass relative to [Gly2]GLP-2 | supplementary increase in the weight of the small intestine without significant effecting the weight of the colon; also recorded: preferentially stimulating epithelial growth in the small intestine | 96 % [Gly2]GLP-2 | 108 % [Gly2]GLP-2 | maximal responses that were significant greater than [Gly2]GLP-2 | tendency of slightly higher stability | 60 | 88 | 91 | 
[Gly2, Thr7, Ser8, Leu10, Ala11,24]hGLP-2(1-30)-NH2 (HGDGSFTSELATILDNLAARDFIAWLIQTK-NH2) [Compound 1834] |  | without preferential growth in small intestine or colon |  |  |  | less stable than the remaining six candidates due to acid hydrolysis | 53 | 38 | 91 | 
[Gly2, Thr7, Ser8, Leu10, Ala11,24]hGLP-2(1-30)-K6-NH2 [Compound 1820] | increased small intestine mass relative to [Gly2]GLP-2 | supplementary increase in the weight of the small intestine without significant effecting the weight of the colon; also recorded: preferentially stimulating epithelial growth in the small intestine |  |  | maximal responses that were significantly greater than [Gly2]GLP-2 | less stable than the remaining six candidates due to acid hydrolysis | 62 | 45 | 85 | increased maximal small intestinal sensitivity relative to [Gly2]GLP-2
[Gly2, Glu3, Thr5, Ser8,11, Leu10, Ala16,24,28]hGLP-2(1-33)-NH2 (HGEGTFSSELSTILDALAARDFIAWLIATKITD-NH2) [Compound 1853] |  | supplementary increase in the weight of the small intestine without significant effecting the weight of the colon; also recorded: preferentially stimulating epithelial growth in the small intestine | 96 % [Gly2]GLP-2 | 105 % [Gly2]GLP-2 |  |  |  |  |  | 
[Gly2, Leu10, Ser8,11, Ala24]hGLP-2(1-30)-NH2 (HGDGSFSSELSTILDNLAARDFIAWLIQTK-NH2) [Compound 1833] |  | without preferential growth in small intestine or colon |  |  |  |  |  |  |  | 
[Thr7, Leu10, Ala11, Ala24]hGLP-2 (1-30)-NH2 [Compound 1843] |  | preferentially stimulating epithelial growth in the colon | 130 % [Gly2]GLP-2 | 85 % [Gly2]GLP-2 |  |  |  |  |  | 
[Gly2, Thr7, Leu10, Ser11, Ala24]hGLP-2(1-30)-NH2 (HGDGSFTDELSTILDNLAARDFIAWLIQTK-NH2) [Compound 1831] |  | preferentially stimulating epithelial growth in the colon | 102 % [Gly2]GLP-2 | 88 % [Gly2]GLP-2 |  |  |  |  |  | 
